Drawing on patent US20080261994A1, “CYCLOPROPANE COMPOUNDS AND PHARMACEUTICAL USE THEREOF” (Japan Tobacco Inc., priority 2003, published 2008), this text covers IC50 for 34 molecules.

Bounds are passed on as bounds.

Assay type in all cases: biochemical
The target of one experiment is T1, aggrecanase-1 (Homo sapiens, UniProt O75173).
T1 sequence (O75173 213-837): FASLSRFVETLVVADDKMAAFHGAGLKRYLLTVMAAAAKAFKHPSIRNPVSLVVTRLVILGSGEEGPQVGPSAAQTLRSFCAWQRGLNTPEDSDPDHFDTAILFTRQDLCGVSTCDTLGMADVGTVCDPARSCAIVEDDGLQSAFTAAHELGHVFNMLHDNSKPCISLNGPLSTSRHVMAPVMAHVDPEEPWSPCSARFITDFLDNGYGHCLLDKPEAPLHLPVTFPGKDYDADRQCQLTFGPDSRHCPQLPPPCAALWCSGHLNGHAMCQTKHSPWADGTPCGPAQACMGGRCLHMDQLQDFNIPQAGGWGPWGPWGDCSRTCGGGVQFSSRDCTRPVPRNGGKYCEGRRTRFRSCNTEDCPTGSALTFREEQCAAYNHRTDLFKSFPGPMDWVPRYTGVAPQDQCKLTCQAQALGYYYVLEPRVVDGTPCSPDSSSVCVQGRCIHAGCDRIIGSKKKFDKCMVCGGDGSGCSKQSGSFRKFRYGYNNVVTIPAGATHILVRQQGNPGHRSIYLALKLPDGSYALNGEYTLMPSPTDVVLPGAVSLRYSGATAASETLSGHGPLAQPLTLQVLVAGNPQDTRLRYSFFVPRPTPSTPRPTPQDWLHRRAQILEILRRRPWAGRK
Description: Aggrecanase-1 inhibitory action (Particle Assay, GAG release from aggrecan-containing polyacrylamide particles). To be noted: Experimental Example 1; read-out: IC50 AG1. A digest of the protocol: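 Readout was dimethylmethylene blue absorbance (595 nm) of glycosaminoglycan liberated into supernatant, calibrated with whale chondroitin sulfate. Substrate was aggrecan in polyacrylamide particles, digested 15 h at 37° C in Tris-HCl; TC50 (μM) derived from inhibition relative to no-enzyme and no-inhibitor controls.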

In another experiment the target is T2, MMP-1 (Homo sapiens, UniProt P03956).
T2 sequence (P03956 100-469): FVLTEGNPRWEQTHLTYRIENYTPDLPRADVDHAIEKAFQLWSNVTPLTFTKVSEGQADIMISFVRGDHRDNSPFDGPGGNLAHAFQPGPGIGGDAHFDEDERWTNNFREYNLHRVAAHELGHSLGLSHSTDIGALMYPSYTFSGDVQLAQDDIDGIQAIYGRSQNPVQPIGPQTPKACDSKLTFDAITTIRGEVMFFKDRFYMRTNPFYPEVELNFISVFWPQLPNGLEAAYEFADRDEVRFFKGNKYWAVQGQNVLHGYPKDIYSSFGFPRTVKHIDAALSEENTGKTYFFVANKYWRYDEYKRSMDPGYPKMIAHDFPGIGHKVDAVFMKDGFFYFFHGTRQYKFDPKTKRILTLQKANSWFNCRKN
Description: MMP-1 inhibitory action (Type I collagen Activity Measurement kit, FITC-labeled collagen type I). Conditions: Experimental Example 2; read-out: IC50 MMP1.

The next experiment addresses T3, Recombinant Human MMP-13 (Homo sapiens, UniProt P45452).
T3 construct: purchased R&D systems 511-MM
The experiment in a line: MMP-13 inhibitory activity (MMP-13 specific fluorescent substrate with quencher). To be noted: Experimental Example 3; read-out: IC50 MMP13. A digest of the protocol:
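IC50 (μM) derived from % inhibition, normalised to wells without enzyme and without inhibitor, fluorescence read at 325/405 nm. Enzyme and compound preceded addition of the quenched 7-MCA…DPA substrate; Tris-HCl buffer, 25 °C for 1 h, acetic-acid stop.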

Turning to `C=C(Cl)c1cnn(-c2ccc(S(=O)(=O)N[C@@]3(C(=O)O)C(C)[C@@H]3c3ccccc3)s2)c1` (stereo partly drawn) [Example 2-545], the IC50 on aggrecanase-1, at MMP-1 and at Recombinant Human MMP-13 was below 100 nM each time.
For the molecule `CC(=O)c1cnn(-c2ccc(S(=O)(=O)N[C@@]3(C(=O)O)C(C)[C@@H]3c3ccccc3)s2)c1` (stereo partly drawn) [Example 2-546], the IC50 on aggrecanase-1, at MMP-1 and at Recombinant Human MMP-13 was below 100 nM each time.
As for `CC(O)c1cnn(-c2ccc(S(=O)(=O)N[C@@]3(C(=O)O)C(C)[C@@H]3c3ccccc3)s2)c1` (stereo partly drawn) [Example 2-547], the IC50 on aggrecanase-1, on MMP-1 and at Recombinant Human MMP-13 was below 100 nM each time.
As to `CC1[C@H](c2ccccc2)[C@]1(NS(=O)(=O)N1Cc2ccc(O)cc2C1)C(=O)O` (stereo partly drawn) [Example 2-548], the IC50 at aggrecanase-1, on MMP-1 and on Recombinant Human MMP-13 was at least 1000 nM throughout.
Take `CC1[C@H](c2ccccc2)[C@]1(NS(=O)(=O)N1CCC(OCc2cccc(Cl)c2)C1)C(=O)O` (stereo partly drawn) [Example 2-549]: the IC50 at aggrecanase-1, at MMP-1 and at Recombinant Human MMP-13 was at least 1000 nM throughout.
`CC1[C@H](c2ccccc2)[C@]1(NS(=O)(=O)N1CCC(OCc2ccc(Cl)cc2)C1)C(=O)O` (stereo partly drawn) [Example 2-550]: the IC50 at aggrecanase-1, at MMP-1 and on Recombinant Human MMP-13 was at least 1000 nM each time.
On to `CC1[C@H](c2ccccc2)[C@]1(NS(=O)(=O)N1CCC(OCc2cc(Cl)ccc2Cl)C1)C(=O)O` (stereo partly drawn) [Example 2-551], for which the IC50 on aggrecanase-1, on MMP-1 and at Recombinant Human MMP-13 was at least 1000 nM throughout.
As for `CC(C)Nc1ccc2c(c1)CN(S(=O)(=O)N[C@@]1(C(=O)O)C(C)[C@@H]1c1ccccc1)C2` (stereo partly drawn) [Example 2-552], the half-inhibitory concentration (IC50) at aggrecanase-1 is at least 1000 nM; on MMP-1 it was at least 1000 nM; on Recombinant Human MMP-13, below 1000 nM.
Regarding `CC1[C@H](c2ccccc2)[C@]1(NS(=O)(=O)N1CCC(OCc2ccc(Cl)cc2Cl)C1)C(=O)O` (stereo partly drawn) [Example 2-553], the IC50 at aggrecanase-1, at MMP-1 and on Recombinant Human MMP-13 was at least 1000 nM in each case.
Consider `O=C(O)[C@]1(NS(=O)(=O)c2ccc(-n3cc(Cl)cn3)nc2)C[C@@H]1c1ccccc1` [Example 2-554], for which the IC50 on aggrecanase-1 was at least 1000 nM; at MMP-1, at least 1000 nM; at Recombinant Human MMP-13, below 1000 nM.
For the molecule `CCOC(=O)c1cc(-c2ccc(S(=O)(=O)N[C@@]3(C(=O)O)C(C)[C@@H]3c3ccccc3)s2)no1` (stereo partly drawn) [Example 2-555], the values for the 50% inhibitory concentration (IC50) at aggrecanase-1, on MMP-1 and at Recombinant Human MMP-13 were below 1000 nM, at least 1000 nM and below 1000 nM, respectively.
Consider `CC1[C@H](c2ccccc2)[C@]1(NS(=O)(=O)c1ccc(-n2cc(C(F)(F)F)cn2)nc1)C(=O)O` (stereo partly drawn) [Example 2-556], for which the IC50 at aggrecanase-1 is at least 1000 nM; on MMP-1, at least 1000 nM; on Recombinant Human MMP-13, below 100 nM.
On to `CC1[C@H](c2ccccc2)[C@]1(NS(=O)(=O)c1ccc(-n2cc(Cl)cn2)nc1)C(=O)O` (stereo partly drawn) [Example 2-557], for which the IC50 at aggrecanase-1 is below 1000 nM; at MMP-1, at least 1000 nM; at Recombinant Human MMP-13, below 100 nM.
Taken in the same sequence, the figures for `O=C(O)[C@]1(NS(=O)(=O)c2ccc(-n3cc(C(F)(F)F)cn3)nc2)C[C@@H]1c1ccccc1` [Example 2-558] were at least 1000 nM, at least 1000 nM and below 1000 nM.
On the same counts, the results for `COCCCC1(c2ccccc2)CC1(NS(=O)(=O)c1ccc(-c2ccc(Cl)cc2)s1)C(=O)O` (stereo not drawn) [Example 2-559] are below 100 nM, at least 1000 nM and below 1000 nM.
On the same counts, the results for `COCCCC1(c2ccccc2)CC1(NS(=O)(=O)c1ccc(-n2cc(Cl)cn2)s1)C(=O)O` (stereo not drawn) [Example 2-560] are below 1000 nM, at least 1000 nM and below 1000 nM.
`CC1[C@H](c2ccccc2)[C@]1(NS(=O)(=O)c1ccc(-n2cc(CO)cn2)s1)C(=O)O` (stereo partly drawn) [Example 2-561]: the IC50 on aggrecanase-1, at MMP-1 and at Recombinant Human MMP-13 was below 100 nM in each case.
Take `C[C@]1(c2ccccc2)C[C@@]1(NS(=O)(=O)c1ccc(/C=C/C(F)(F)F)s1)C(=O)O` [Example 2-562]: the IC50 on aggrecanase-1, on MMP-1 and at Recombinant Human MMP-13 was at least 1000 nM each time.
Regarding `C[C@]1(c2ccccc2)C[C@@]1(NS(=O)(=O)c1ccc(/C=C\C(F)(F)F)s1)C(=O)O` [Example 2-563], the IC50 on aggrecanase-1, at MMP-1 and at Recombinant Human MMP-13 was at least 1000 nM in each case.
With `C[C@]1(c2ccccc2)C[C@@]1(NS(=O)(=O)c1ccc(-c2ccc(Cl)c(CO)c2)s1)C(=O)O` [Example 2-564], the IC50 at aggrecanase-1 was below 100 nM; on MMP-1, at least 1000 nM; on Recombinant Human MMP-13 it was below 100 nM.
As to `CC1[C@H](c2ccccc2)[C@]1(NS(=O)(=O)c1ccc(-c2ccc(Cl)c(CO)c2)s1)C(=O)O` (stereo partly drawn) [Example 2-565], the IC50 on aggrecanase-1 was below 100 nM; on MMP-1, below 1000 nM; at Recombinant Human MMP-13, below 100 nM.
For the molecule `C[C@]1(c2ccccc2)C[C@@]1(NS(=O)(=O)c1ccc(-c2ccc(Cl)cc2Cl)s1)C(=O)O` [Example 2-566], the values for the IC50 at aggrecanase-1, on MMP-1 and at Recombinant Human MMP-13 were below 1000 nM, at least 1000 nM and at least 1000 nM, respectively.
Take `C[C@]1(c2ccccc2)C[C@@]1(NS(=O)(=O)c1ccc(-c2ccc(C#N)cc2)s1)C(=O)O` [Example 2-567]: the IC50 on aggrecanase-1 was below 100 nM; at MMP-1, at least 1000 nM; on Recombinant Human MMP-13 it was below 1000 nM.
Consider `C[C@]1(c2ccccc2)C[C@@]1(NS(=O)(=O)c1ccc2c(c1)Cc1cc(Cl)ccc1-2)C(=O)O` [Example 2-568], for which the IC50 on aggrecanase-1 is below 100 nM; at MMP-1, below 1000 nM; on Recombinant Human MMP-13, below 100 nM.
With `CC1[C@H](c2ccccc2)[C@]1(NS(=O)(=O)c1ccc2c(c1)Cc1cc(Cl)ccc1-2)C(=O)O` (stereo partly drawn) [Example 2-569], the figures for the IC50 on aggrecanase-1, on MMP-1 and on Recombinant Human MMP-13 were below 100 nM, below 1000 nM and below 100 nM, respectively.
Regarding `CC1[C@H](c2ccccc2)[C@]1(NS(=O)(=O)c1ccc(-c2cn3ccccc3n2)s1)C(=O)O` (stereo partly drawn) [Example 2-570], the IC50 was below 1000 nM on aggrecanase-1, at least 1000 nM at MMP-1 and below 100 nM at Recombinant Human MMP-13.
As to `CC1[C@H](c2ccccc2)[C@]1(NS(=O)(=O)c1ccc(-c2cn3cccnc3n2)s1)C(=O)O` (stereo partly drawn) [Example 2-571], the IC50 on aggrecanase-1 is at least 1000 nM; at MMP-1 it was at least 1000 nM; on Recombinant Human MMP-13, below 1000 nM.
With `C[C@]1(c2ccccc2)C[C@@]1(NS(=O)(=O)c1ccc(-c2ccc(C(F)(F)F)cc2)s1)C(=O)O` [Example 2-572], the IC50 was below 100 nM on aggrecanase-1, at least 1000 nM on MMP-1 and below 100 nM at Recombinant Human MMP-13.
For `CC(=O)c1ccc(-c2ccc(S(=O)(=O)N[C@@]3(C(=O)O)C[C@]3(C)c3ccccc3)s2)cc1` [Example 2-573], the results for the IC50 on aggrecanase-1, on MMP-1 and at Recombinant Human MMP-13 were below 1000 nM, at least 1000 nM and below 100 nM, respectively.
As to `C[C@]1(c2ccccc2)C[C@@]1(NS(=O)(=O)c1ccc(-c2ccc(CO)cc2)s1)C(=O)O` [Example 2-574], the IC50 on aggrecanase-1 was below 1000 nM; on MMP-1, below 1000 nM; at Recombinant Human MMP-13 it was below 100 nM.
For the molecule `CC1[C@H](c2ccccc2)[C@]1(NS(=O)(=O)c1ccc(-n2cc(C(F)(F)F)cn2)s1)C(=O)O` (stereo partly drawn) [Example 2-577], the concentration for half-maximal inhibition (IC50) was below 100 nM on aggrecanase-1, below 1000 nM on MMP-1 and below 100 nM at Recombinant Human MMP-13.
Take `CC1[C@H](c2ccccc2)[C@]1(NS(=O)(=O)c1ccc(-c2cc(C(N)=O)on2)s1)C(=O)O` (stereo partly drawn) [Example 2-578]: the IC50 on aggrecanase-1 was below 1000 nM; on MMP-1 it was at least 1000 nM; at Recombinant Human MMP-13 it was below 100 nM.
Turning to `CC1[C@H](c2ccccc2)[C@]1(NS(=O)(=O)c1ccc(-c2cc(C#N)on2)s1)C(=O)O` (stereo partly drawn) [Example 2-579], the 50% inhibitory concentration (IC50) at aggrecanase-1 is below 100 nM; on MMP-1 it was below 1000 nM; on Recombinant Human MMP-13 it was below 100 nM.
Consider `CC1[C@H](c2ccccc2)[C@]1(NS(=O)(=O)c1ccc(-n2cc(C#N)cn2)s1)C(=O)O` (stereo partly drawn) [Example 2-580], for which the IC50 was below 1000 nM at aggrecanase-1, at least 1000 nM at MMP-1 and below 100 nM on Recombinant Human MMP-13.
